#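 Five compound concentrations were applied to cells in 96-well plates for 48 hours; endpoints were derived by simple linear interpolation of the resulting dose-response curve. GI50 is the concentration that inhibits growth by half. TGI denotes the concentration required for complete inhibition of growth.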 Where a SMILES comes first, the peptide text is derived from it. [ ]: non-standard residue; d: D form. The star is where a group is joined. Decanoyl = CCCCCCCCCC(=O)*; Leu(ol) = CC(C)C[C@H](N)CO; Iva = CC[C@](C)(N)C(=O)O; Aib = CC(C)(N)C(=O)O
# Experiments:
# Experiment in all cases: NCI tumour cell line growth inhibition, 48 h
# HS 578T breast = tested on: HS 578T breast
# PC-3 prostate = tested on: PC-3 prostate
# A549 NSCLC = tested on: A549 NSCLC
# T-47D breast = tested on: T-47D breast
# OVCAR-4 ovarian = tested on: OVCAR-4 ovarian
# 786-0 renal = tested on: 786-0 renal
# U251 CNS = tested on: U251 CNS
# RPMI-8226 leukemia = tested on: RPMI-8226 leukemia
# HCT-116 colon = tested on: HCT-116 colon
# OVCAR-8 ovarian = tested on: OVCAR-8 ovarian
# SK-MEL-5 melanoma = tested on: SK-MEL-5 melanoma
# MOLT-4 leukemia = tested on: MOLT-4 leukemia
# RXF 393 renal = tested on: RXF 393 renal
# IGROV1 ovarian = tested on: IGROV1 ovarian
# UO-31 renal = tested on: UO-31 renal
# HCT-15 colon = tested on: HCT-15 colon
# CAKI-1 renal = tested on: CAKI-1 renal
# BT-549 breast = tested on: BT-549 breast
# ACHN renal = tested on: ACHN renal
# NCI-H23 lung = tested on: NCI-H23 lung
# NCI-H226 lung = tested on: NCI-H226 lung
# NCI/ADR-RES ovarian = tested on: NCI/ADR-RES ovarian
# OVCAR-3 ovarian = tested on: OVCAR-3 ovarian
# MDA-MB-231 breast = tested on: MDA-MB-231 breast
# SK-MEL-28 melanoma = tested on: SK-MEL-28 melanoma
# SN12C renal = tested on: SN12C renal
# DU-145 prostate = tested on: DU-145 prostate
# SK-OV-3 ovarian = tested on: SK-OV-3 ovarian
# MCF7 breast = tested on: MCF7 breast
# NCI-H522 lung = tested on: NCI-H522 lung
# HCC-2998 colon = tested on: HCC-2998 colon
# HOP-92 NSCLC = tested on: HOP-92 NSCLC
# NCI-H460 lung = tested on: NCI-H460 lung
# COLO 205 colon = tested on: COLO 205 colon
# CCRF-CEM leukemia = tested on: CCRF-CEM leukemia
# MDA-MB-435 = tested on: MDA-MB-435
# LOX IMVI melanoma = tested on: LOX IMVI melanoma
# TK-10 renal = tested on: TK-10 renal
# UACC-62 melanoma = tested on: UACC-62 melanoma
# HOP-62 NSCLC = tested on: HOP-62 NSCLC
# A498 renal = tested on: A498 renal
# SF-539 CNS = tested on: SF-539 CNS
# SW-620 colon = tested on: SW-620 colon
# KM12 colon = tested on: KM12 colon
# SK-MEL-2 melanoma = tested on: SK-MEL-2 melanoma
# K-562 leukemia = tested on: K-562 leukemia
# SF-295 CNS = tested on: SF-295 CNS
# SNB-75 CNS = tested on: SNB-75 CNS
# HT29 colon = tested on: HT29 colon
# SF-268 CNS = tested on: SF-268 CNS
# HL-60(TB) leukemia = tested on: HL-60(TB) leukemia
# EKVX NSCLC = tested on: EKVX NSCLC
# SR leukemia = tested on: SR leukemia
# UACC-257 melanoma = tested on: UACC-257 melanoma
# OVCAR-5 ovarian = tested on: OVCAR-5 ovarian
# MALME-3M melanoma = tested on: MALME-3M melanoma
# SNB-19 CNS = tested on: SNB-19 CNS
# M14 melanoma = tested on: M14 melanoma
smiles,measurement,setting,value
CCCCCCCCCC(=O)NC(C)(C)C(=O)N1CCC[C@H]1C(=O)N[C@@H](CC(C)C)C(=O)N[C@@](C)(CC)C(=O)N[C@@H](CCC(N)=O)C(=O)N[C@H](CCC(N)=O)C(=O)NC(C)(C)C(=O)NC(C)(C)C(=O)N[C@@H](CCC(N)=O)C(=O)N[C@H](CC(C)C)C(=O)N[C@H](CO)CC(C)C (Decanoyl-[Aib]PL[Iva]Q[dQ][Aib][Aib]Q[dL][Leu(ol)]),GI50,HS 578T breast,1.81 µM
same,TGI,HS 578T breast,3.51 µM
same,GI50,PC-3 prostate,1.71 µM
same,TGI,PC-3 prostate,3.3 µM
same,GI50,A549 NSCLC,1.86 µM
same,TGI,A549 NSCLC,3.85 µM
same,GI50,T-47D breast,2.02 µM
same,TGI,T-47D breast,4.31 µM
same,GI50,OVCAR-4 ovarian,2.05 µM
same,TGI,OVCAR-4 ovarian,4.63 µM
same,GI50,786-0 renal,1.84 µM
same,TGI,786-0 renal,3.5 µM
same,GI50,U251 CNS,1.72 µM
same,TGI,U251 CNS,3.22 µM
same,GI50,RPMI-8226 leukemia,1.92 µM
same,TGI,RPMI-8226 leukemia,3.95 µM
same,GI50,HCT-116 colon,1.85 µM
same,TGI,HCT-116 colon,3.49 µM
same,GI50,OVCAR-8 ovarian,1.84 µM
same,TGI,OVCAR-8 ovarian,3.66 µM
same,GI50,SK-MEL-5 melanoma,1.74 µM
same,TGI,SK-MEL-5 melanoma,3.17 µM
same,GI50,MOLT-4 leukemia,2.29 µM
same,TGI,MOLT-4 leukemia,5.9 µM
same,GI50,RXF 393 renal,1.93 µM
same,TGI,RXF 393 renal,3.45 µM
same,GI50,IGROV1 ovarian,1.8 µM
same,TGI,IGROV1 ovarian,3.36 µM
same,GI50,UO-31 renal,1.6 µM
same,TGI,UO-31 renal,2.95 µM
same,GI50,HCT-15 colon,1.9 µM
same,TGI,HCT-15 colon,3.79 µM
same,GI50,CAKI-1 renal,1.7 µM
same,TGI,CAKI-1 renal,3.13 µM
same,GI50,BT-549 breast,1.85 µM
same,TGI,BT-549 breast,3.3 µM
same,GI50,ACHN renal,1.86 µM
same,TGI,ACHN renal,3.6 µM
same,GI50,NCI-H23 lung,1.79 µM
same,TGI,NCI-H23 lung,3.52 µM
same,GI50,NCI-H226 lung,1.88 µM
same,TGI,NCI-H226 lung,3.86 µM
same,GI50,NCI/ADR-RES ovarian,1.83 µM
same,TGI,NCI/ADR-RES ovarian,3.55 µM
same,GI50,OVCAR-3 ovarian,1.79 µM
same,TGI,OVCAR-3 ovarian,3.25 µM
same,GI50,MDA-MB-231 breast,1.76 µM
same,TGI,MDA-MB-231 breast,3.26 µM
same,GI50,SK-MEL-28 melanoma,1.69 µM
same,TGI,SK-MEL-28 melanoma,3.06 µM
same,GI50,SN12C renal,1.7 µM
same,TGI,SN12C renal,3.17 µM
same,GI50,DU-145 prostate,1.75 µM
same,TGI,DU-145 prostate,3.13 µM
same,GI50,SK-OV-3 ovarian,1.93 µM
same,TGI,SK-OV-3 ovarian,3.8 µM
same,GI50,MCF7 breast,1.78 µM
same,TGI,MCF7 breast,3.45 µM
same,GI50,NCI-H522 lung,1.73 µM
same,TGI,NCI-H522 lung,3.33 µM
same,GI50,HCC-2998 colon,1.8 µM
same,TGI,HCC-2998 colon,3.39 µM
same,GI50,HOP-92 NSCLC,1.64 µM
same,TGI,HOP-92 NSCLC,3.14 µM
same,GI50,NCI-H460 lung,1.89 µM
same,TGI,NCI-H460 lung,3.47 µM
same,GI50,COLO 205 colon,1.86 µM
same,TGI,COLO 205 colon,3.6 µM
same,GI50,CCRF-CEM leukemia,1.81 µM
same,TGI,CCRF-CEM leukemia,3.6 µM
same,GI50,MDA-MB-435,1.75 µM
same,TGI,MDA-MB-435,3.16 µM
same,GI50,LOX IMVI melanoma,1.73 µM
same,TGI,LOX IMVI melanoma,3.29 µM
same,GI50,TK-10 renal,1.78 µM
same,TGI,TK-10 renal,3.26 µM
same,GI50,UACC-62 melanoma,1.63 µM
same,TGI,UACC-62 melanoma,2.98 µM
same,GI50,HOP-62 NSCLC,1.95 µM
same,TGI,HOP-62 NSCLC,3.8 µM
same,GI50,A498 renal,1.98 µM
same,TGI,A498 renal,3.55 µM
same,GI50,SF-539 CNS,1.72 µM
same,TGI,SF-539 CNS,3.11 µM
same,GI50,SW-620 colon,1.86 µM
same,TGI,SW-620 colon,3.46 µM
same,GI50,KM12 colon,1.83 µM
same,TGI,KM12 colon,3.33 µM
same,GI50,SK-MEL-2 melanoma,1.74 µM
same,TGI,SK-MEL-2 melanoma,3.24 µM
same,GI50,K-562 leukemia,2.44 µM
same,GI50,SF-295 CNS,1.75 µM
same,TGI,SF-295 CNS,3.26 µM
same,GI50,SNB-75 CNS,1.46 µM
same,TGI,SNB-75 CNS,2.79 µM
same,GI50,HT29 colon,2.01 µM
same,TGI,HT29 colon,3.83 µM
same,GI50,SF-268 CNS,1.76 µM
same,TGI,SF-268 CNS,3.31 µM
same,GI50,HL-60(TB) leukemia,1.87 µM
same,TGI,HL-60(TB) leukemia,3.97 µM
same,GI50,EKVX NSCLC,1.7 µM
same,TGI,EKVX NSCLC,3.17 µM
same,GI50,SR leukemia,2.25 µM
same,GI50,UACC-257 melanoma,1.75 µM
same,TGI,UACC-257 melanoma,3.24 µM
same,GI50,OVCAR-5 ovarian,1.7 µM
same,TGI,OVCAR-5 ovarian,3.07 µM
same,GI50,MALME-3M melanoma,1.51 µM
same,TGI,MALME-3M melanoma,2.89 µM
same,GI50,SNB-19 CNS,1.7 µM
same,TGI,SNB-19 CNS,3.1 µM
same,GI50,M14 melanoma,1.77 µM
same,TGI,M14 melanoma,3.29 µM
